Test results from the supplement of paper PMC10307832.

Key:
Test in all cases: relative viability (nuclei count vs DMSO), 5 days (fraction); higher = more cells survive
NCI-H1944 = tested on: NCI-H1944
Outline: (§1)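 Each reported value is a median over duplicate plates. It expresses relative viability: treated-well nuclei count divided by vehicle-well nuclei count. Lung cancer cell lines in 1536-well plates were dosed by pin tool a day after seeding, alone with one drug or with a fixed anchor-drug dose plus five library-drug doses (not always all listed) in √10 steps, and nuclei were counted after 5 days.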

NCI-H2405 = tested on: NCI-H2405
Outline: as §1

UMC-11 = tested on: UMC-11
Outline: as §1

LU99A = tested on: LU99A
Outline: as §1

HCC-78 = tested on: HCC-78
Outline: as §1

LOU-NH91 = tested on: LOU-NH91
Outline: as §1

LC-2-ad = tested on: LC-2-ad
Outline: as §1

RERF-LC-KJ = tested on: RERF-LC-KJ
Outline: as §1

NCI-H1395 = tested on: NCI-H1395
Outline: as §1

NCI-H1734 = tested on: NCI-H1734
Outline: as §1

NCI-H1651 = tested on: NCI-H1651
Outline: as §1

NCI-H2228 = tested on: NCI-H2228
Outline: as §1

ChaGo-K-1 = tested on: ChaGo-K-1
Outline: as §1

NCI-H1793 = tested on: NCI-H1793
Outline: as §1

NCI-H3122 = tested on: NCI-H3122
Outline: as §1

ABC-1 = tested on: ABC-1
Outline: as §1

HCC-366 = tested on: HCC-366
Outline: as §1

NCI-H460 = tested on: NCI-H460
Outline: as §1

NCI-H2170 = tested on: NCI-H2170
Outline: as §1

CAL-12T = tested on: CAL-12T
Outline: as §1

PC-3 [JPC-3] = tested on: PC-3 [JPC-3]
Outline: as §1

NCI-H2087 = tested on: NCI-H2087
Outline: as §1

NCI-H1755 = tested on: NCI-H1755
Outline: as §1

## C=C1C(=O)O[C@@H](CCCCCCCC)[C@@H]1C(=O)O [C-75] + COc1cc2c(Oc3ccc(NC(=O)C4(C(=O)Nc5ccc(F)cc5)CC4)cc3F)ccnc2cc1OCCCN1CCOCC1 [Foretinib] (partner 0.25 µM)
NCI-H1944; first compound 0.08 µM
  relative viability: 0.899
NCI-H1944; first compound 0.253 µM
  relative viability: 0.756
NCI-H1944; first compound 0.8 µM
  relative viability: 0.829
NCI-H1944; first compound 8 µM
  relative viability: 0.834
NCI-H2405; first compound 0.08 µM
  relative viability: 1.05
NCI-H2405; first compound 0.253 µM
  relative viability: 1
NCI-H2405; first compound 0.8 µM
  relative viability: 1.05
NCI-H2405; first compound 2.53 µM
  relative viability: 0.882
NCI-H2405; first compound 8 µM
  relative viability: 1.05
UMC-11; first compound 0.08 µM
  relative viability: 0.99
UMC-11; first compound 0.253 µM
  relative viability: 1.04
UMC-11; first compound 0.8 µM
  relative viability: 0.978
UMC-11; first compound 2.53 µM
  relative viability: 0.681
UMC-11; first compound 8 µM
  relative viability: 0.69
LU99A; first compound 0.08 µM
  relative viability: 0.809
LU99A; first compound 0.253 µM
  relative viability: 0.71
LU99A; first compound 0.8 µM
  relative viability: 0.831
LU99A; first compound 2.53 µM
  relative viability: 0.783
LU99A; first compound 8 µM
  relative viability: 0.63
HCC-78; first compound 0.08 µM
  relative viability: 0.553
HCC-78; first compound 0.253 µM
  relative viability: 0.554
HCC-78; first compound 0.8 µM
  relative viability: 0.577
HCC-78; first compound 2.53 µM
  relative viability: 0.421
HCC-78; first compound 8 µM
  relative viability: 0.687
LOU-NH91; first compound 0.08 µM
  relative viability: 0.938
LOU-NH91; first compound 0.253 µM
  relative viability: 0.873
LOU-NH91; first compound 0.8 µM
  relative viability: 0.903
LOU-NH91; first compound 2.53 µM
  relative viability: 0.914
LOU-NH91; first compound 8 µM
  relative viability: 0.948
LC-2-ad; first compound 0.08 µM
  relative viability: 0.937
LC-2-ad; first compound 0.253 µM
  relative viability: 0.8
LC-2-ad; first compound 0.8 µM
  relative viability: 0.859
LC-2-ad; first compound 2.53 µM
  relative viability: 0.724
LC-2-ad; first compound 8 µM
  relative viability: 0.889
RERF-LC-KJ; first compound 0.08 µM
  relative viability: 0.94
RERF-LC-KJ; first compound 0.253 µM
  relative viability: 0.973
RERF-LC-KJ; first compound 0.8 µM
  relative viability: 0.909
RERF-LC-KJ; first compound 2.53 µM
  relative viability: 0.797
RERF-LC-KJ; first compound 8 µM
  relative viability: 0.961
NCI-H1395; first compound 0.08 µM
  relative viability: 0.894
NCI-H1395; first compound 0.253 µM
  relative viability: 1.02
NCI-H1395; first compound 0.8 µM
  relative viability: 0.948
NCI-H1395; first compound 2.53 µM
  relative viability: 1.03
NCI-H1395; first compound 8 µM
  relative viability: 1.13
NCI-H1734; first compound 0.08 µM
  relative viability: 0.942
NCI-H1734; first compound 0.253 µM
  relative viability: 0.819
NCI-H1734; first compound 0.8 µM
  relative viability: 0.78
NCI-H1734; first compound 2.53 µM
  relative viability: 0.476
NCI-H1734; first compound 8 µM
  relative viability: 0.748
NCI-H1651; first compound 0.08 µM
  relative viability: 0.83
NCI-H1651; first compound 0.253 µM
  relative viability: 0.944
NCI-H1651; first compound 0.8 µM
  relative viability: 0.725
NCI-H1651; first compound 2.53 µM
  relative viability: 0.668
NCI-H1651; first compound 8 µM
  relative viability: 0.958
NCI-H2228; first compound 0.08 µM
  relative viability: 0.803
NCI-H2228; first compound 0.253 µM
  relative viability: 0.919
NCI-H2228; first compound 0.8 µM
  relative viability: 0.85
NCI-H2228; first compound 2.53 µM
  relative viability: 0.839
NCI-H2228; first compound 8 µM
  relative viability: 0.863
ChaGo-K-1; first compound 0.08 µM
  relative viability: 0.915
ChaGo-K-1; first compound 0.253 µM
  relative viability: 0.887
ChaGo-K-1; first compound 0.8 µM
  relative viability: 0.894
ChaGo-K-1; first compound 2.53 µM
  relative viability: 0.925
ChaGo-K-1; first compound 8 µM
  relative viability: 0.874
NCI-H1793; first compound 0.08 µM
  relative viability: 0.572
NCI-H1793; first compound 0.253 µM
  relative viability: 0.721
NCI-H1793; first compound 0.8 µM
  relative viability: 0.569
NCI-H1793; first compound 2.53 µM
  relative viability: 0.46
NCI-H1793; first compound 8 µM
  relative viability: 0.658
NCI-H3122; first compound 0.08 µM
  relative viability: 0.966
NCI-H3122; first compound 0.253 µM
  relative viability: 0.848
NCI-H3122; first compound 0.8 µM
  relative viability: 0.936
NCI-H3122; first compound 2.53 µM
  relative viability: 0.952
NCI-H3122; first compound 8 µM
  relative viability: 0.983
ABC-1; first compound 0.08 µM
  relative viability: 1.16
ABC-1; first compound 0.253 µM
  relative viability: 1.24
ABC-1; first compound 0.8 µM
  relative viability: 0.913
ABC-1; first compound 2.53 µM
  relative viability: 1.18
ABC-1; first compound 8 µM
  relative viability: 0.81
HCC-366; first compound 0.08 µM
  relative viability: 0.909
HCC-366; first compound 0.253 µM
  relative viability: 0.961
HCC-366; first compound 0.8 µM
  relative viability: 0.877
HCC-366; first compound 8 µM
  relative viability: 0.845
NCI-H460; first compound 0.08 µM
  relative viability: 1.01
NCI-H460; first compound 0.253 µM
  relative viability: 1.09
NCI-H460; first compound 0.8 µM
  relative viability: 0.891
NCI-H460; first compound 8 µM
  relative viability: 0.977
NCI-H2170; first compound 0.08 µM
  relative viability: 1.06
NCI-H2170; first compound 0.253 µM
  relative viability: 1.01
NCI-H2170; first compound 0.8 µM
  relative viability: 0.987
NCI-H2170; first compound 2.53 µM
  relative viability: 0.591
NCI-H2170; first compound 8 µM
  relative viability: 0.986
CAL-12T; first compound 0.08 µM
  relative viability: 1.17
CAL-12T; first compound 0.253 µM
  relative viability: 1.34
CAL-12T; first compound 0.8 µM
  relative viability: 1.07
CAL-12T; first compound 2.53 µM
  relative viability: 1.05
CAL-12T; first compound 8 µM
  relative viability: 1.25
PC-3 [JPC-3]; first compound 0.08 µM
  relative viability: 1.05
PC-3 [JPC-3]; first compound 0.253 µM
  relative viability: 1.02
PC-3 [JPC-3]; first compound 0.8 µM
  relative viability: 1.06
PC-3 [JPC-3]; first compound 2.53 µM
  relative viability: 1.06
PC-3 [JPC-3]; first compound 8 µM
  relative viability: 1.2
NCI-H2087; first compound 0.08 µM
  relative viability: 1.15
NCI-H2087; first compound 0.253 µM
  relative viability: 1.07
NCI-H2087; first compound 0.8 µM
  relative viability: 0.943
NCI-H2087; first compound 2.53 µM
  relative viability: 0.725
NCI-H2087; first compound 8 µM
  relative viability: 0.891
NCI-H1755; first compound 0.08 µM
  relative viability: 0.922
NCI-H1755; first compound 0.253 µM
  relative viability: 0.886
NCI-H1755; first compound 0.8 µM
  relative viability: 0.94
NCI-H1755; first compound 2.53 µM
  relative viability: 0.888
NCI-H1755; first compound 8 µM
  relative viability: 0.878
